Experimental data from the Deep4Chem optical property database.
One block for each molecule: values may come before it.

Experiment: solvent given as SMILES
[1] = in O=P(c1ccccc1)(c1ccccc1)c1ccccc1Oc1ccccc1P(=O)(c1ccccc1)c1ccccc1

emission maximum (in ClCCl): 537 nm
SMILES: c1cc(-c2ccc(-n3c4ccccc4c4ccccc43)cc2)c2nsnc2c1

emission maximum (in CC#N): 463 nm
emission maximum (in CCCCCC): 452 nm
emission maximum (in CO): 482 nm
emission maximum (in CS(C)=O): 475 nm
emission maximum (in ClC(Cl)Cl): 460 nm
SMILES: C/C(=N\Nc1ccc(C#N)cc1)c1ccccn1

emission maximum (in CC#N): 523 nm
emission maximum (in ClCCl): 491 nm
SMILES: Cc1cc(O)c(C(=O)/C=C/c2cccc(O)c2)c(=O)o1

emission maximum (in CO): 375 nm
SMILES: O=C(O)CCCc1ccc2ccc3cccc4ccc1c2c34

emission maximum (in ClCCl): 367 nm
SMILES: COc1ccc(-n2c3ccccc3c3c(C)cc4ccccc4c32)cc1

emission maximum (in CCO): 643 nm
emission maximum (in O): 651 nm
SMILES: CC/[NH+]=c1\cc2oc3cc(NCCO)c4ccccc4c3nc-2cc1C

emission maximum (in ClCCl): 418 nm
SMILES: CCn1c2ccccc2c2c(N(c3ccccc3)c3ccccc3)cccc21

emission maximum (in ClCCl): 409 nm
SMILES: CCOC(=O)c1c(-c2c(Cl)c3ccccc3oc2=O)nn(-c2cccc(Cl)c2)c1C(=O)OCC

emission maximum (in ClCCl): 388 nm
SMILES: CC(C)(C)NC(=O)c1ccc(Br)c2ccc3c4ccccc4c4ccccc4c3c12

emission maximum (in CCOC(C)=O): 386 nm
emission maximum (in CS(C)=O): 428 nm
emission maximum (in ClCCl): 404 nm
SMILES: Cc1cc2ccccc2c2c1c1ccccc1n2-c1ccc(N(c2ccccc2)c2ccccc2)cc1

emission maximum (in CCCCCC): 407 nm
emission maximum (in CCO): 398 nm
emission maximum (in CCOC(C)=O): 398 nm
emission maximum (in ClCCl): 399 nm
SMILES: c1cc2ccc3ccc(-n4c5ccccc5c5ccccc54)c4ccc(c1)c2c34

emission maximum (in ClCCl): 425 nm
SMILES: COC(=O)C1=C(C(=O)OC)C2(c3ccccc3-c3ccccc32)[C@@H](c2ccc(C)cc2)C=C2c3cc(OC)c(OC)cc3CCN21

emission maximum (in ClC(Cl)Cl): 385 nm
SMILES: CCCCCCCCC1(CCCCCCCC)c2cc(-c3ccc(C#N)cc3)ccc2-c2ccc(-c3ccc(C#N)cc3)cc21

emission maximum (in C1CCOC1): 616 nm
SMILES: CN(C)c1ccc(C(=Cc2ccc(/C=C(\C#N)c3ccccc3)cc2)c2ccc(N(C)C)cc2)cc1

emission maximum (in ClC(Cl)Cl): 618 nm
SMILES: Cc1cc(C)c(C2=C3C=CC(c4ccc5ccccc5c4)=[N+]3[B-](F)(F)n3c2ccc3-c2ccc3ccccc3c2)c(C)c1

emission maximum (in O): 414 nm
SMILES: [O-]c1ccc2ccccc2c1

emission maximum (in CC#N): 440 nm
SMILES: Cc1ccc(C#Cc2ccc3ccc(=O)oc3c2)cc1

emission maximum (in CC#N): 408 nm
SMILES: c1ccc2c(c1)ncc1ccc3cnc4ccccc4c3c12

emission maximum (in C1CCOC1): 420 nm
emission maximum (in C1COCCO1): 417 nm
emission maximum (in CC#N): 419 nm
emission maximum (in CC(C)O): 421 nm
emission maximum (in CCO): 422 nm
emission maximum (in CCOC(C)=O): 417 nm
emission maximum (in CN(C)C=O): 422 nm
emission maximum (in CO): 434 nm
emission maximum (in CS(C)=O): 425 nm
emission maximum (in O): 451 nm
SMILES: NS(=O)(=O)c1ccc(N2N=C(c3ccc(O)cc3)CC2c2ccc([N+](=O)[O-])cc2)cc1 (stereo not drawn)

emission maximum (in ClCCl): 676 nm
SMILES: N#C/C(=C\c1ccc(/C=C/c2ccc(N(c3ccccc3)c3ccccc3)cc2)s1)C(=O)O

emission maximum (in CC#N): 387 nm
emission maximum (in CO): 386.5 nm
SMILES: c1ccc(-c2nc(-c3ccccc3)c(-c3ccccc3)[nH]2)cc1

emission maximum (in CC#N): 406 nm
SMILES: O=c1oc2ccccc2cc1C#Cc1ccccc1

emission maximum (in ClCCl): 388 nm
SMILES: CC(C)(C)NC(=O)c1cccc2ccc3c4ccc(F)cc4c4cc(F)ccc4c3c12

emission maximum (in CC#N): 471 nm
SMILES: Oc1ccc2ccccc2c1/C=N/C1CCCCC1/N=C/c1c(O)ccc2ccccc12 (stereo not drawn)

emission maximum (in ClCCl): 518 nm
SMILES: Cc1cn2cc(-c3ccc(C#N)cc3)[n-][n+]2c1

More lines, now with the values behind:

SMILES: COC(=O)c1ccc(/C=C/C(F)(F)F)c(N)c1
emission maximum (in C1CCOC1): 447 nm

SMILES: CCCCCCCCOc1ccc(C2=C3C(C)=CC(C)=[N+]3[B-](F)(F)n3c(C)cc(C)c32)cc1
emission maximum (in ClCCl): 513 nm

SMILES: CCCCCCCCCCCCOc1cc2c3cc(OCCCCCCCCCCCC)c(OCCCCCCCCCCCC)cc3c3c(cc(OCCCCCCCCCCCC)c4nc5cc(C#Cc6ccc(OCCCC)cc6)c(C#Cc6ccc(OCCCC)cc6)cc5nc43)c2cc1OCCCCCCCCCCCC
emission maximum (in ClC(Cl)Cl): 661 nm

SMILES: Cc1ccc(NC(=O)c2ccc(N(C)C)cc2)cc1
emission maximum (in C1CCCCC1): 465 nm
emission maximum (in C1CCOC1): 532 nm
emission maximum (in CC#N): 502 nm
emission maximum (in CCOCC): 518 nm

SMILES: c1ccc2c(c1)c1ccccc1n2-c1ccc2c(c1)c1ccccc1n2-c1ccc(-n2c3ccccc3c3cc(-n4c5ccccc5c5ccccc54)ccc32)cc1
emission maximum (in C1CCOC1): 372 nm
emission maximum (in CC(C)=O): 379 nm
emission maximum (in Cc1ccccc1): 372 nm
emission maximum (in ClCCl): 383 nm

SMILES: F[B-]1(F)Oc2ccccc2-c2cc(-n3c4ccccc4c4ccccc43)cc[n+]21
emission maximum (in Cc1ccccc1): 449 nm
emission maximum [1]: 475 nm

SMILES: CCCN1/C(=C\c2c(-c3ccc(N(C)C)cc3)c(=O)c2=O)C=Cc2ccccc21
emission maximum (in C1CCCCC1): 428 nm
emission maximum (in Cc1ccccc1): 435 nm
emission maximum (in ClCCl): 585 nm

SMILES: O=C1C(=c2c(=O)c3c4ccccc4cc4cc5ccccc5c2c43)C(=O)c2ccccc21
emission maximum (in C1CCOC1): 583 nm
emission maximum (in CC#N): 604 nm
emission maximum (in CCCCCC): 556 nm
emission maximum (in Cc1ccccc1): 578 nm
emission maximum (in ClCCl): 599 nm

SMILES: Cc1cc(=O)oc2c3c4c(cc12)CCCN4CCC3
emission maximum (in C1CCCCC1): 407 nm
emission maximum (in CC#N): 450 nm
emission maximum (in CCO): 473 nm
emission maximum (in O): 489 nm

SMILES: C=CC1CN2CCC1CC2[C@H](O)c1ccnc2ccc(OC)cc12 (stereo partly drawn)
emission maximum (in O): 451 nm

SMILES: CCOC(=O)c1cc2ccc3ccccc3c2c(C#N)c1N
emission maximum (in Cc1ccccc1): 461 nm

SMILES: Cc1cccc(C)c1-c1cc2c(C)c3c4ccc5nc6c(ccc7c8c(C)c9cc(-c%10c(C)cccc%10C)c(-c%10c(C)cccc%10C)cc9c(C)c8c76)nc5c4c3c(C)c2cc1-c1c(C)cccc1C
emission maximum (in ClC(Cl)Cl): 670 nm

SMILES: COc1ccc(C2=C(C)C3=C(c4c(-c5ccccn5)nc5ccccn45)c4c(C)c(-c5ccc(OC)cc5)c(C)n4[B-](F)(F)[N+]3=C2C)cc1
emission maximum (in ClCCl): 608 nm

SMILES: c1cc2ccc3ccc4cc3c2cc1c1ccc2ccc3ccc(cc3c2c1)c1ccc2c(c1)c1cc4ccc1[C@]13OCCO[C@]21OCCO3
emission maximum (in Cc1ccccc1): 421 nm

SMILES: Brc1cnc(-c2ccncc2)s1
emission maximum (in CO): 396 nm

SMILES: CSc1cc(-c2cc3cc4c5c(c3oc2=O)CCCN5CCC4)oc(=O)c1C#N
emission maximum (in C1CCOC1): 580 nm
emission maximum (in CC#N): 603 nm
emission maximum (in CC(C)=O): 596 nm
emission maximum (in CCOC(C)=O): 575 nm
emission maximum (in CN(C)C=O): 612 nm
emission maximum (in CO): 601 nm
emission maximum (in CS(C)=O): 616 nm
emission maximum (in Cc1ccccc1): 553 nm
emission maximum (in ClC(Cl)Cl): 570 nm
emission maximum (in ClCCl): 586 nm

SMILES: F[B-]1(F)n2ccnc2-c2cccc[n+]21
emission maximum (in C1CCCCC1): 338 nm
emission maximum (in C1CCOC1): 353 nm
emission maximum (in C1COCCO1): 352 nm
emission maximum (in CC#N): 359 nm
emission maximum (in CCCCCC): 337 nm
emission maximum (in CO): 362 nm
emission maximum (in ClC(Cl)Cl): 356 nm

SMILES: CN(C)c1ccc(/C=C/c2nc(N3CCOCC3)c3c([n+]2[O-])CCCC3)cc1
emission maximum (in ClCCl): 523 nm

SMILES: CC(C)[Si](C#Cc1c2ccccc2c(C#C[Si](C(C)C)(C(C)C)C(C)C)c2nc3ccccc3nc12)(C(C)C)C(C)C
emission maximum (in CCCCCC): 577 nm
emission maximum (in ClCCl): 609 nm

SMILES: O[Si](c1c2ccccc2cc2ccccc12)(c1c2ccccc2cc2ccccc12)c1c2ccccc2cc2ccccc12
emission maximum (in ClC(Cl)Cl): 434 nm

SMILES: CC1=CC(Br)=CN2C[n+]3cc(Br)cc(C)c3N=C12
emission maximum (in CO): 502 nm

SMILES: CC1(C)c2ccccc2N(c2ccc3c(c2)c(=O)c2cccc4c(=O)c5cc(N6c7ccccc7C(C)(C)c7ccccc76)ccc5n3c24)c2ccccc21
emission maximum (in Cc1ccccc1): 549.35 nm

SMILES: CCCCCCCC[n+]1ccc(-c2cc[n+](CCCCCCCC)cc2)cc1
emission maximum (in CC#N): 353 nm

SMILES: O=C1CC(=O)Nc2cc(C(=O)O)ccc2N1
emission maximum (in CS(C)=O): 407 nm

SMILES: c1ccc(N(c2ccccc2)c2ccc(-c3ccc(-c4ccc(N(c5ccccc5)c5ccccc5)cc4)c4nsnc34)cc2)cc1
emission maximum (in ClCCl): 639 nm

SMILES: Cc1cc(C)c(C2=C3C=C(/C=C/C(=O)OCc4ccccc4)C=[N+]3[B-](F)(F)n3cccc32)c(C)c1
emission maximum (in ClCCl): 568 nm

SMILES: O=S1(=O)c2ccccc2Oc2cc(N3c4ccccc4C4(c5ccccc53)c3ccccc3N(c3ccc5c(c3)Oc3ccccc3S5(=O)=O)c3ccccc34)ccc21
emission maximum (in Cc1ccccc1): 439.83 nm
emission maximum [1]: 464.9 nm

SMILES: N#Cc1c(-n2c3ccccc3c3cc(Br)ccc32)c(-n2c3ccccc3c3cc(Br)ccc32)c(C#N)c(-n2c3ccccc3c3cc(Br)ccc32)c1-n1c2ccccc2c2cc(Br)ccc21
emission maximum (in Cc1ccccc1): 543 nm

SMILES: CCN(CC)c1ccc(/C=N/C2CCCCC2/N=C/c2ccc(N(CC)CC)cc2O)c(O)c1 (stereo not drawn)
emission maximum (in CC#N): 426 nm
emission maximum (in CN(C)C=O): 432 nm
emission maximum (in ClCCl): 461 nm

SMILES: CC[N+]1(CC)CN2C(=N1)C(C(=O)O)=Cc1ccc(C)cc12
emission maximum (in O): 457 nm

SMILES: CC(C)[Si](C#Cc1c2cc3ccccc3cc2c(C#C[Si](C(C)C)(C(C)C)C(C)C)c2cc3ccccc3cc12)(C(C)C)C(C)C
emission maximum (in ClCCl): 649 nm

SMILES: O=C(c1ccc(C(=C(c2ccccc2)c2ccccc2)c2ccccc2)cc1)c1ccc(-n2c3ccccc3c3ccccc32)cc1
emission maximum (in C1CCOC1): 496 nm

SMILES: O=C1OC(=O)[C@H]2[C@@H]1[C@@H]1C[C@H]2c2c1c(-c1ccccc1)c1ccccc1c2-c1ccccc1
emission maximum (in ClC(Cl)Cl): 362 nm

SMILES: CCOC(CN1C(=O)C2=C(c3ccsc3)N(CC(OCC)OCC)C(=O)C2=C1c1ccsc1)OCC
emission maximum (in ClC(Cl)Cl): 524 nm

SMILES: O=c1oc2ccccc2cc1-c1ccc(-c2cc3ccccc3oc2=O)cc1
emission maximum (in CC#N): 426 nm
emission maximum (in CCO): 426 nm
emission maximum (in CCOC(C)=O): 426 nm
emission maximum (in CS(C)=O): 430 nm
emission maximum (in Cc1ccccc1): 424 nm
emission maximum (in ClC(Cl)Cl): 430 nm

SMILES: COC(=O)C1=C(C(=O)OC)C2(c3cc(Cl)ccc3-c3c(Cl)cc(Cl)cc32)C2(/C=C/c3ccccc3)c3cc(OC)c(OC)cc3CCN12 (stereo not drawn)
emission maximum (in ClCCl): 487 nm

SMILES: CCn1c2ccccc2c2cc(-c3cc(-c4ccc5c(c4)c4ccccc4n5CC)nc(C#N)n3)ccc21
emission maximum (in C1CCOC1): 427 nm
emission maximum (in CCOC(C)=O): 422 nm
emission maximum (in CN(C)C=O): 455 nm
emission maximum (in Cc1ccccc1): 404 nm
emission maximum (in ClCCl): 435 nm

SMILES: CCCCCCn1c2cc(/C=C/c3ccccc3)ccc2c2ccc(/C=C/c3ccccc3)cc21
emission maximum (in ClC(Cl)Cl): 414.94 nm
